Molecules are shown by their SMILES.

One assay deals with H+/K+-ATPase (rabbit gastric mucosal microsomes) (Oryctolagus cuniculus (Rabbit), UniProt P27112). The assay is described as follows: In vitro screening test of H+/K+-ATPase inhibition (malachite green). The class given is biochemical. As to conditions: pH 6.5, 37° C. 30 min, read-out: IC50, inhibitory effect on H+/K+-ATPase activity. The source says: This test example evaluates the inhibitory effects of the compounds of the present invention on the activity of H+/K+-ATPase by an in vitro screening test, and expresses them with the IC50 values of the compounds (obtained by calculating the inhibition rates at different concentrations).
H+/K+-ATPase (rabbit gastric mucosal microsomes), sequence (P27112 whole entry): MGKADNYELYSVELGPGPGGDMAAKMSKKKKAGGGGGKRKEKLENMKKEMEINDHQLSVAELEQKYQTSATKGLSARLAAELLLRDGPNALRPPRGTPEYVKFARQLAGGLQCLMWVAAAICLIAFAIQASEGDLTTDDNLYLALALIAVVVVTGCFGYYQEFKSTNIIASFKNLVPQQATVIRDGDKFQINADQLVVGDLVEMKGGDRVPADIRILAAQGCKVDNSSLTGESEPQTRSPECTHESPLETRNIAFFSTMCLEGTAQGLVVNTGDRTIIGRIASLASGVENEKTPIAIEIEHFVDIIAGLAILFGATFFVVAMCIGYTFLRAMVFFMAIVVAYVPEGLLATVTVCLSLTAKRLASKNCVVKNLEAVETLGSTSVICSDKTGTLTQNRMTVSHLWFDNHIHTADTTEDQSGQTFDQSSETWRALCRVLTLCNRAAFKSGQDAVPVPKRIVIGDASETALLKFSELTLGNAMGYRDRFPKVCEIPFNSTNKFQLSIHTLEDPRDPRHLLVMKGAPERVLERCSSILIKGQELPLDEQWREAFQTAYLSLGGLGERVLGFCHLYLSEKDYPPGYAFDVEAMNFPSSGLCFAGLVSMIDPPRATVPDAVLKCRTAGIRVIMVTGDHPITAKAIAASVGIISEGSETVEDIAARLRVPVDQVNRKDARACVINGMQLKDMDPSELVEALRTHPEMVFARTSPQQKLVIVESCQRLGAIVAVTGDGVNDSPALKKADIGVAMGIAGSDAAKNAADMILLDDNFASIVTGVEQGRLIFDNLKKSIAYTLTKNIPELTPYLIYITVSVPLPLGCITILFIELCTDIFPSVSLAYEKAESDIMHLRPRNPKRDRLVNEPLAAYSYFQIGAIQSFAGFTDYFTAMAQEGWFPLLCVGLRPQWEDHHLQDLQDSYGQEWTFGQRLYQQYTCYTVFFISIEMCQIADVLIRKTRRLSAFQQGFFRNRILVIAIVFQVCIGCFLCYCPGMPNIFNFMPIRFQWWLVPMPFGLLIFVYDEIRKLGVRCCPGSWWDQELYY
H+/K+-ATPase (rabbit gastric mucosal microsomes), sequence (P18597 whole entry partner): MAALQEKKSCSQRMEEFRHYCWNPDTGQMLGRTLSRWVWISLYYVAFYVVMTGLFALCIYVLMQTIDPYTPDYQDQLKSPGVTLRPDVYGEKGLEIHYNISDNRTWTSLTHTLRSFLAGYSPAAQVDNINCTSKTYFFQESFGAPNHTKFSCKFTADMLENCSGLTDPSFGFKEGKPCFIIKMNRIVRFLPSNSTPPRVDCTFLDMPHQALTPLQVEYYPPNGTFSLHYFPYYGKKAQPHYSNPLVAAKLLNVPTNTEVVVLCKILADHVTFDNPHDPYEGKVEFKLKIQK
• Compound solutions: The products (i.e., the compounds or the hydrochloride salt of compounds) obtained in the foregoing preparation examples of the present invention were each independently dissolved in DMSO to form solutions at suitable concentrations; • Buffer I: 50 mmol/L HEPEs-Tris, pH=6.5, 5 mmol/L magnesium chloride, […] valinomycin (J&K Scientific Ltd., goods No.: 227304); • Buffer II: 50 mmol/L HEPEs-Tris, pH=6.5, 5 mmol/L magnesium chloride, […] valinomycin, 5 mmol/L potassium chloride; • 5-adenosine triphosphate (ATP, Sigma-Aldrich, goods No.: A2383) solution: Dilute ATP with buffer I to 5 mM; • Malachite green solution: Dissolve 0.12 wt % malachite green (J&K Scientific Ltd., goods No.: 913120) in 2.5 mol/L sulfuric acid, 7.5 wt % ammonium molybdate (J&K Scientific Ltd., goods No.: 128321) and 11% Tween 20(V/V). During use, sulfuric acid, ammonium molybdate and Tween 20 are mixed in a ratio of 100:25:2; • Rabbit gastric mucosal microsomes (rich in H+/K+-ATPase, self-extracted), extracted by sucrose gradient centrifugation: The rabbit stomach was washed with tap water and 3M NaCl solution, respectively, and then the surface water was removed with filter paper. A pre-cooled homogenization buffer (4 ml/g tissue) was added and homogenized for 2-5 min in a tissue homogenizer. After the homogenizing, if there are large tissue particles, they can be removed by centrifugation (600 g, 10 min). The supernatant was then transferred to a clean centrifuge tube and centrifuged at 20,000 g for 30 min, then the supernatant was transferred to a clean centrifuge tube and further centrifuged at 100,000 g for 90 min and the precipitate was collected; the precipitate was suspended in homogenate and blown evenly, and the protein concentration was measured by the Bradford's method and adjusted to 10 mg/ml; 7.5 wt % Ficoll's layering solution was added in equal proportions. After centrifugation at 100,000 g for 60 min, the middle layer (H^+/K^+-ATPase-enriched gastric membranes) was collected in a clean centrifuge tube, diluted with homogenate by 4-5 times, and then centrifuged at 100,000 g for another 90 min, and the precipitate was collected; the precipitate was suspended in homogenate and homogenized in a glass homogenizer, and the protein concentration was measured by the Bradford's method and adjusted to 22.5 mg/ml. It was frozen at −80° C. and stored for future use.
5 μL of rabbit gastric mucosal microsomes (H^+/K^+-ATPase) was added to 45 μL of buffer II, then 5 μL of compound solution was added, and then 5 μL of 5 mM ATP solution was added to start the reaction and pre-react at 37° C. for 30 min. 15 μL of malachite green solution was added to terminate the reaction, balancing was conducted at room temperature for 20 min, and read the optical absorbance at 620 nm.
Meanwhile, the reaction of the same volume was carried out without addition of potassium chloride as a background, which was subtracted when calculating enzymatic activity.
Take `CNCc1cc(-c2ccc(OCc3cc(F)cc(F)c3)cc2F)n(S(=O)(=O)c2cccnc2)c1` [Compound 58]: the IC50 came out at 25.7 nM.

As for `CNCc1cc(-c2ccc(OCc3ccccc3OC(F)F)cc2F)n(S(=O)(=O)c2cccnc2)c1` [Compound 59], the IC50 turned out to be 41.3 nM.

On to `CNCc1cc(-c2ccc(OCc3ccccc3OC(F)(F)F)cc2F)n(S(=O)(=O)c2cccnc2)c1` [Compound 60], for which the IC50 is 186 nM.

In the case of `CNCc1cc(-c2ccc(OCc3ccc(OC(F)F)cc3)cc2F)n(S(=O)(=O)c2cccnc2)c1` [Compound 61], the IC50 stood at 51.3 nM.

For `CNCc1cc(-c2ccc(OCc3cccc4ccccc34)cc2F)n(S(=O)(=O)c2cccnc2)c1` [Compound 62], the IC50 was determined as 35.9 nM.

For the compound `CNCc1cc(-c2ccc(OCc3cccc4ccccc34)cc2F)n(S(=O)(=O)c2cccc(C#N)c2)c1` [Compound 63], the IC50 was 1060 nM.

For `CNCc1cc(-c2ccc(OCc3ccc(C(=O)O)cc3)cc2F)n(S(=O)(=O)c2cccnc2)c1` [Compound 64], the IC50 was 164 nM.

Consider `CNCc1cc(-c2ccc(OC(C)c3cc(F)ccc3F)cc2F)n(S(=O)(=O)c2cccnc2)c1` (stereo not drawn) [Compound 65], for which the IC50 was determined as 80.5 nM.

Take `CNCc1cc(-c2ccc(O[C@@H](C)c3c(Cl)ccc(F)c3Cl)cc2F)n(S(=O)(=O)c2cccnc2)c1` [Compound 66]: the IC50 was found to be 485 nM.

In the case of `CNCc1cc(-c2ccc(OC(C)c3cc(F)cc(F)c3)cc2F)n(S(=O)(=O)c2cccnc2)c1` (stereo not drawn) [Compound 68], the IC50 was determined as 41.4 nM.

As to `CNCc1cc(-c2ccc(OC(C)c3c(F)cccc3F)cc2F)n(S(=O)(=O)c2cccc(C#N)c2)c1` (stereo not drawn) [Compound 69], the IC50 was determined as 114 nM.

For `CNCc1cc(-c2ccc(OC(C)c3cc(F)cc(F)c3)cc2F)n(S(=O)(=O)c2cccc(C#N)c2)c1` (stereo not drawn) [Compound 70], the IC50 came out at 88.1 nM.

With `CNCc1cc(-c2ccc(OC(C)c3cc(F)cc(F)c3)cc2F)n(S(=O)(=O)c2cccc(OCC3CC3)c2)c1` (stereo not drawn) [Compound 71], the IC50 came out at 496 nM.

Turning to `CNCc1cc(-c2ccc(OC(C)c3c(F)cccc3F)cc2F)n(S(=O)(=O)c2cccc(OCC3CC3)c2)c1` (stereo not drawn) [Compound 72], the IC50 was 342 nM.

Turning to `CNCc1cc(-c2ccc(OCc3ccc(C)cc3C)cc2F)n(S(=O)(=O)c2cccnc2)c1` [Compound 73], the IC50 came to 209 nM.

Consider `CNCc1cc(-c2ccc(OCc3ccncc3)cc2F)n(S(=O)(=O)c2cccnc2)c1` [Compound 74], for which the IC50 was 564 nM.

Regarding `CNCc1cc(-c2ccc(OCc3ccccc3OC)cc2F)n(S(=O)(=O)c2cccnc2)c1` [Compound 75], the IC50 was found to be 36.6 nM.

With `CNCc1cc(-c2ccc(O[C@H](C)c3c(Cl)ccc(F)c3Cl)cc2F)n(S(=O)(=O)c2cccnc2)c1` [Compound 76], the IC50 was 470 nM.

Regarding `CNCc1cc(-c2ccc(OCc3ccsc3)cc2F)n(S(=O)(=O)c2cccnc2)c1` [Compound 77], the IC50 is 120 nM.

Regarding `CNCc1cc(-c2ccc(OCc3cc(F)ccc3F)cc2F)n(S(=O)(=O)c2cccc(Cl)c2)c1` [Compound 78], the IC50 turned out to be 98.5 nM.

With `CNCc1cc(-c2ccc(OCc3cc(F)ccc3F)cc2F)n(S(=O)(=O)c2cccc(F)c2)c1` [Compound 79], the IC50 is 55.3 nM.

For the compound `CNCc1cc(-c2ccc(OCc3cc(F)ccc3F)cc2F)n(S(=O)(=O)c2cc(F)cc(F)c2)c1` [Compound 80], the IC50 worked out at 65.9 nM.

`CNCc1cc(-c2ccc(OCc3cc(F)ccc3F)cc2F)n(S(=O)(=O)c2ccc(C)c(F)c2)c1` [Compound 81]: the IC50 came out at 56.6 nM.

Take `CCCCCOc1cccc(S(=O)(=O)n2cc(CNC)cc2-c2ccc(OCc3cc(F)ccc3F)cc2F)c1` [Compound 82]: the IC50 was 3660 nM.

For `CNCc1cc(-c2ccc(OC(C)c3c(F)cccc3F)cc2F)n(S(=O)(=O)c2cccc(OCC3CCC3)c2)c1` (stereo not drawn) [Compound 83], the IC50 amounted to 13300 nM.

As for `CNCc1cc(-c2ccc(OCc3cc(F)ccc3F)cc2F)n(S(=O)(=O)c2cccc(OCC3CCCC3)c2)c1` [Compound 84], the IC50 stood at 109 nM.

On to `CNCc1cc(-c2ccc(OC(C)c3c(F)cccc3F)cc2F)n(S(=O)(=O)c2cccc(OCC3CCCC3)c2)c1` (stereo not drawn) [Compound 85], for which the IC50 was determined as 9780 nM.

Turning to `CNCc1cc(-c2ccc(OCc3cc(F)ccc3F)cc2F)n(S(=O)(=O)c2cccc(OCCOC)c2)c1` [Compound 86], the IC50 was 34.4 nM.

Turning to `CNCc1cc(-c2ccc(OCc3ccccc3OC)cc2F)n(S(=O)(=O)c2cccc(OCCOC)c2)c1` [Compound 87], the IC50 stood at 43.4 nM.

For `CNCc1cc(-c2ccc(OC(C)c3c(F)cccc3F)cc2F)n(S(=O)(=O)c2cccc(OCCCOC)c2)c1` (stereo not drawn) [Compound 88], the IC50 is 450 nM.

Take `CNCc1cc(-c2ccc(OC(C)c3cc(F)cc(F)c3)cc2F)n(S(=O)(=O)c2cccc(OCCCOC)c2)c1` (stereo not drawn) [Compound 89]: the IC50 was determined as 1330 nM.

For the compound `CNCc1cc(-c2ccc(OCc3ccc4ccccc4c3)cc2F)n(S(=O)(=O)c2cccc(OCCCCOC)c2)c1` [Compound 90], the IC50 came to 2690 nM.

With `CNCc1cc(-c2ccc(OC(C)c3c(F)cccc3F)cc2F)n(S(=O)(=O)c2cccc(OCCCCOC)c2)c1` (stereo not drawn) [Compound 91], the IC50 was determined as 693 nM.

`CNCc1cc(-c2ccc(OC(C)c3cc(F)cc(F)c3)cc2F)n(S(=O)(=O)c2cccc(OCCCCOC)c2)c1` (stereo not drawn) [Compound 92]: the IC50 was found to be 1910 nM.

In the case of `CNCc1cc(-c2ccc(OCc3cccc4c3OCO4)cc2F)n(S(=O)(=O)c2cccc(OCCCCOC)c2)c1` [Compound 93], the IC50 was found to be 12400 nM.

With `CNCc1cc(-c2ccc(OCc3cccc4c3OCO4)cc2F)n(S(=O)(=O)c2cccnc2)c1` [Compound 94], the IC50 was 48.4 nM.

Take `CNCc1cc(-c2ccc(OCc3cccc4c3OCO4)cc2F)n(S(=O)(=O)c2cccc(C#N)c2)c1` [Compound 95]: the IC50 is 9.5 nM.

As for `CNCc1cc(-c2ccc(OCc3cccc4c3OCCO4)cc2F)n(S(=O)(=O)c2cccnc2)c1` [Compound 96], the IC50 amounted to 51.1 nM.

As for `CNCc1cc(-c2ccc(OCc3cccc4c3OCCO4)cc2F)n(S(=O)(=O)c2cccc(C#N)c2)c1` [Compound 97], the IC50 is 11.9 nM.

In the case of `CNCc1cc(-c2ccc(OCc3cc(F)ccc3F)cc2F)n(S(=O)(=O)c2cccc(C(F)(F)F)c2)c1` [Compound 98], the IC50 is 485 nM.

`CNCc1cc(-c2ccc(OCCc3cc(F)cc(F)c3)cc2F)n(S(=O)(=O)c2cccnc2)c1` [Compound 99]: the IC50 came out at 72.6 nM.

Consider `CNCc1cc(-c2ccc(OCc3ccoc3)cc2F)n(S(=O)(=O)c2cccnc2)c1` [Compound 100], for which the IC50 was 101 nM.

Take `CNCc1cc(-c2ccc(OCc3cccnc3C)cc2F)n(S(=O)(=O)c2cccnc2)c1` [Compound A2]: the IC50 was determined as 155 nM.

In the case of `CNCc1cc(-c2ccc(OCc3ncccc3F)cc2F)n(S(=O)(=O)c2cccnc2)c1` [Compound A6], the IC50 stood at 157 nM.

The test system of a further assay is histamine-induced gastric acid secretion. Put plainly: Inhibition of histamine-induced gastric acid secretion in rats (pylorus ligation). In kind it is in vivo, rat. Particulars: SD rats, 2 mg/kg by gavage, total acid over 3 h after histamine. As to the method:
70 SPF-level SD rats with a weight of 180-220 g (Hangzhou Medical College (produced)), randomly grouped by weight, including negative control groups (isovolumetric saline) and model control groups (isovolumetric saline), and compounds obtained in the foregoing preparation examples of the present invention (i.e., compounds or compound hydrochlorides) (2 mg/kg or 4 mg/kg), 10 rats each group, including 5 males and 5 females. The rats were fasted, but were allowed to drink water for 24 h. After 24 h, the rats were given the compound at 1 ml/100 g by gavage, once in each group, and the rats in the negative control groups and the model groups were given an equal volume of saline by gavage. After that, the rats were anesthetized with chloral hydrate 300 mg/kg (1 ml/100 g) and fixed on a rat plate, and the abdominal wall was incised along the abdominal midline from the subxiphoid process of the sternum, and the incision was approximately 2-3 cm and was made on the left costal margin, and the stomach was exposed to the incision by gently pushing it with the fingers upwards. The pylorus was ligated with a thread under the pylorus (other neighboring vessels were not ligated), and the abdominal wall incision was sutured. The animals were given histamine dihydrochloride (30 mg/10 ml/kg) subcutaneously after 1 h of gavage of the test compound or saline. After 3 h of histamine administration, the rats were asphyxiated with excess CO2, stomachs were removed, stomach contents were collected and centrifuged at 3000 rpm/min for 10 min, and the acid solution was titrated with 0.1 mol/L NaOH to pH7.0. The total acidity and acid inhibition rate during the 3 h period were calculated.
Acid inhibition rate (%)=(Total acid in the model group−total acid in the test group)/total acid in the model group×100%
As to `CNCc1cc(-c2ccc(OCc3ccc(OC)nc3)cc2F)n(S(=O)(=O)c2cccnc2)c1` [Compound A4], the Acid inhibition rate was 60%.

Values taken from patent US20260001864A1, “COMPOUND CONTAINING SULFAMIDE STRUCTURE, AND PREPARATION METHOD THEREFOR AND APPLICATION THEREOF, AND PHARMACEUTICAL COMPOSITION AND APPLICATION” (Nanjing Shuohui Pharmatechnology Co., Ltd, priority 2021, published 2026).
